According to patent US20110117169A1, “METHODS AND COMPOSITIONS FOR CAPTURE OF CELLS” (AFFINERGY, INC., priority 2009, published 2011):
Ends that are not written are not given here. spacer = not defined here

How the values were obtained:
HUVECs [1] = assay: HUVEC capture and retention on plates coated with peptide-modified collagen ([…]-GLO); type: cell-based, human
Procedure: After washing, 10,000 HUVECs were added per well in serum free medium for 30 min at 37° C. The plates were washed 3 times with PBS containing 2% FBS, and captured cells were detected with […]-GLO (INVITROGEN) using a luminometer and a standard curve. […] For FIG. 21B, the collagen was extracted in gel loading buffer, separated by PAGE, and total protein was stained with SIMPLYBLUE (INVITROGEN). […] Plates with captured HUVECs were prepared as described in FIG. 20A. […]

hMSCs [2] = assay: Binding of peptide-modified collagen to hMSCs, FACS with Neutravidin-PE; set-up: species or system human; settings: 20,000 hMSCs, 1 hr on ice, serial dilution from 25 μM
Procedure: In a separate experiment, cell binding peptide SEQ ID NO: 4 was covalently attached to collagen as described herein and tested for its ability to bind hMSCs using an experimental setup similar to that described above. Briefly, collagen with covalently attached SEQ ID NO: 4 peptide was serial diluted (starting from 25 μM) and mixed with 20,000 hMSCs in 2% FBS/PBS. After 1 hr incubation on ice, cells were washed twice with 2% FBS/PBS and cells bound to the collagen with covalently attached SEQ ID NO: 4 peptide were detected with Neutravidin-PE. Cells were washed, transferred into 96-well plates for FACS analysis.

hMSCs [3] = assay: Adherence of hMSCs to polypropylene in presence of peptide-modified collagen; type: cell-based, human; settings: after binding in presence of the collagen
HUVECs [4] = assay: Retention of HUVECs under shear stress on coated coverslips; type: cell-based, human
Procedure: The ability of the collagen modified with endothelial cell binding peptide SEQ ID NO: 4 to retain HUVECs under shear stress was analyzed as follows. Glass cover-slips were coated with peptide conjugated collagen or unmodified collagen and seeded with HUVECs. Coverslips were secured in a polycarbonate slide with six 1 cm diameter wells enabling simultaneous testing of materials. A closed loop peristaltic pump was used to expose the samples to flow conditions for 30 minutes at laminar flow rates up to 12 dynes/cm^2 in PBS containing 2% FBS. The number of cells retained on the cover slip was determined using […]-GLO (INVITORGEN) and a luminometer.

human dermal fibroblasts = assay: Fibroblast binding to peptide-modified collagen coated plates; type: cell-based; settings: for fibroblast binding compared to unmodified collagen: higher concentrations / FIG. 28 summary
Procedure: The experiment was performed according to the following procedure. Cell-binding peptide (SEQ ID NO: 4) was covalently attached to soluble collagen as described herein at Example 7. 96-well plates were coated with various amounts of unmodified or the peptide-modified collagen (177 μmol peptide/g collagen) over night at 4° C. Unbound collagen was removed and the plates were blocked for 1 h. After washing, 5,000 human dermal fibroblasts were added per well in serum-free medium for 30 min at 37° C. The plates were washed, and bound cells were detected with […]-GLO (PROMEGA) using a luminometer. At 0.0025 μg collagen, fibroblast binding was increased 11-fold for the peptide-modified collagen compared to unmodified collagen (see FIG. 28).

hMSCs [5] = assay: hMSC attachment to PEEK discs in collagen solution ([…]-GLO); type: cell-based, human; settings: 2 h at 37° C., highest concentration of collagen
Procedure: To test whether collagen having a covalently attached cell binding peptide could increase cell adhesion to PEEK discs, PEEK discs were coated with collagen and hMSC attachment was measured. Industrial-grade PEEK discs were obtained from […] POLYMERS, Inc Houston, Tex. The discs were machined with a steel punch for a 0.5 cm diameter (thickness of 0.125). Discs (n=2 per group) were coated by two methods. In the first method, the discs were incubated overnight with varying concentrations of cell binding peptide SEQ ID NO: 4-modified collagen (88.5 μmol peptide/g of collagen). The discs were washed to remove unattached peptide and collagen, and the attached biotinylated peptide was detected with Neutravidin-HRP in an ELISA assay. […] In the second method, uncoated PEEK discs were placed in a solution of unmodified or peptide-modified collagen and hMSCs. After 2 h at 37° C., discs were moved to a new plate and washed with PBS to remove unbound cells. The number of attached cells was counted by […]-GLO. […] On the other hand, peptide-conjugated collagen increased cell attachment relative to both uncoated and collagen-coated PEEK. At the highest concentration of peptide-modified collagen, 26% of the cells were attached, whereas only 9% of cells attached to the uncoated discs and 11% to the discs coated with unmodified collagen.

ECFCs = assay: Capture of ECFCs in flow on coated coverslips (parallel plate flow chamber); type: cell-based, human; settings: 2×10^6 ECFC circulated 2 h at 37° C.
Procedure: The ability of the collagen modified with endothelial cell binding peptide SEQ ID NO: 4 to capture ECFCs in flow was analyzed as follows. Glass coverslips were coated with unmodified collagen or cell binding peptide modified-collagen and mounted in a polycarbonate parallel plate flow chamber. PBS/10% FBS was circulated through a closed 150 ml system to block the coverslips. Approximately 2×10^6 ECFC were injected into the system and were circulated for 2 h at 37° C. Coverslips were washed in PBS to remove loosely adhering cells, the remaining cells on the coverslips were lysed in CELLTITERGLO (INVITROGEN, CA), and the cells enumerated by luminescence against a standard curve.

increase in fluorescence signal compared to control (hMSCs [2]): ~100 fold
increase in fibroblast binding compared to unmodified collagen (human dermal fibroblasts; 0.0025 μg collagen, 5,000 fibroblasts per well, 30 min at 37° C.): 11 fold
fibroblast binding compared to unmodified collagen (human dermal fibroblasts; listed as SEQ ID NO: 4 peptide-modified collagen): Increased cell binding
fibroblast binding compared to unmodified collagen (human dermal fibroblasts; listed as cell binding peptide (SEQ ID NO: 4)-modified collagen): enhanced binding
Substance: peptide-modified collagen: SEQ ID NO: 4 with spacer and lysine covalently attached to soluble bovine type I collagen via BS^3 crosslinking reagent (SSFWDVCQGDGTCYGGGSR-{spacer-Lys}; cysteine pairing not given here; reading uncertain; also: covalently attached to soluble bovine type I collagen via BS3 crosslinker, spacer not given here)
HUVECs retained compared to unmodified collagen after agitation (HUVECs [1]; 1 hour with agitation in PBS containing 2% FBS): 7 fold
increase in HUVEC retention over unmodified collagen (HUVECs [1]; 10,000 HUVECs per well, serum free medium, 30 min at 37° C.): 3 fold
hMSCs retained on the walls of polypropylene plates (hMSCs [3]): ~80%
effect of shear stress on cell capture (HUVECs [4]; 30 minutes, laminar flow up to 12 dynes/cm^2): did not significantly affect cell capture
HUVECs captured compared to unmodified collagen (HUVECs [4]; coated glass cover-slips, PBS containing 2% FBS): about 3 fold
cells attached to PEEK discs (hMSCs [5]): 26%
ECFCs captured in flow compared to unmodified collagen (ECFCs): about 20 fold
